Data taken from patent US7834053B2, “Medicinal compositions improving brain function and method for improving brain function” (priority 2002, dated 2010).
“And” between values parts separate entries of the source, which are not always exact repeats. Equal entries are not always repeated.

Assays:
[1] = reported in the literature; cited from earlier work
[2] = system: in-brain acetylcholine; conditions: Society for Neuroscience Abstracts 21, 947, 1995; cited from earlier work
[3] = Society for Neuroscience Abstracts 21, 947, 1995; cited from earlier work
[4] = system: ddY male mice; experiment: Anti-hypoxic activity: survival time of mice in 4% oxygen / 96% nitrogen after oral administration; type: in vivo
Experimental: Test compounds A1, A2, A3, B1 and B2 were put to use after dissolution in distilled water. Test compounds C1 and C2 were put to use after suspending them in 0.5% solution of methylcellulose.
The test was carried out according to the method described in Japanese Journal of Pharmacology, Vol. 62, Page 81, 1993.
To one group (6-10 animals) of ddY male mice having an age of 4-5 weeks was orally administered a test compound dissolved in distilled water or suspended in 0.5% methyl cellulose solution. Thirty minutes after the administration, the mice were introduced into a glass container at a volume of 300 mL, and a gaseous mixture composed of 4% of oxygen and 96% of nitrogen was passed though the glass container at a flow rate of 5 L/minute. The period of time from the start of passing the gaseous mixture to the death of the mice was measured. To the control group, distilled water was administered orally.

[5] = system: neuronal death caused by amyloid-beta-protein; conditions: Society for Neuroscience Abstracts 24, Part 1, 228, 1998; cited from earlier work
[6] = system: nerve growth factor; conditions: WO96/12717; cited from earlier work
[7] = 10 mg/kg oral, alone, survival time vs control x100, 30 min after administration
[8] = Compound (1) 10 mg/kg oral in combination with Compound B1 (Donepezil) 3 mg/kg
[9] = Compound (1) 10 mg/kg oral in combination with Compound B2 (Tacrine) 10 mg/kg
[10] = 100 mg/kg oral, alone, survival time vs control x100

CCN(CC)CCOC[C@H](O)c1ccc2sccc2c1.Cl [Compound A1, (R)-1-{benzo[b]thiophen-5-yl}-2-[2-(N,N-diethylamino}ethoxy]ethanol hydrochloride]
anti-hypoxic activity [1]: has an anti-hypoxic activity
release of in-brain acetylcholine [2]: promotes the release of in-brain acetylcholine
anti-amnestic activity [3]: an anti-amnestic activity
Anti-hypoxic activity (%) [4, 7]: 137%
Anti-hypoxic activity (%) [4, 8]: 211%
Anti-hypoxic activity (%) [4, 9]: 172%
protecting effect on the neuronal death caused by amyloid-beta-protein [5]: exhibits a protecting effect
effect on the action of nerve growth factor [6]: exhibits an increasing effect

CN(CCO)CCCOCCc1ccc2sccc2c1.CN(CCO)CCCOCCc1ccc2sccc2c1.O=C(O)/C=C/C(=O)O [Compound A2, 2-[[3-(2-benzo[b]thiophen-5-yl-ethoxy)propyl](methyl)amino]-1-ethanol.1/2fumarate]
Anti-hypoxic activity (%) [4, 7]: 114%
Anti-hypoxic activity (%) [4, 8]: 168%
Anti-hypoxic activity (%) [4, 9]: 172%

O=C(O)/C=C\C(=O)O.OC1CN(CCCOCCc2ccc3sccc3c2)C1 [Compound A3, 1-[3-(2-(1-benzothiophen-5-yl)ethoxy]-propyl]-3-azetidinol-maleate]
Anti-hypoxic activity (%) [4, 7]: 111%
Anti-hypoxic activity (%) [4, 8]: 190%
Anti-hypoxic activity (%) [4, 9]: 149%

COc1cc2c(cc1OC)C(=O)C(CC1CCN(Cc3ccccc3)CC1)C2 (centres unmarked) [Compound B1, Donepezil]
Anti-hypoxic activity (%) ([4]; 3 mg/kg oral, alone, survival time vs control x100): 119% and 104%

Cl.Nc1c2c(nc3ccccc13)CCCC2 [Compound B2, 1,2,3,4-tetrahydro-9-acridinamine hydrochloride]
anti-hypoxic activity [1]: anti-hypoxic activity is shown
Anti-hypoxic activity (%) ([4]; 10 mg/kg oral, alone, survival time vs control x100, 30 min after administration, hydrochloride): 127% and 107%

COC1=C(OC)C(=O)C(CCCCCCCCCCO)=C(C)C1=O [Compound C1, Idebenone]
Anti-hypoxic activity (%) [4, 10]: 104%
Anti-hypoxic activity (%) ([4]; 300 mg/kg oral, alone, survival time vs control x100): 108%
Anti-hypoxic activity (%) ([4]; Compound (1) 300 mg/kg oral in combination with Compound B1 (Donepezil) 3 mg/kg): 100%

Cl.FC(F)(F)c1cccc(C2=CCN(CCc3ccc4ccccc4c3)CC2)c1 [Compound C2, SR57746A]
Anti-hypoxic activity (%) ([4]; 30 mg/kg oral, alone, survival time vs control x100): 100%
Anti-hypoxic activity (%) [4, 10]: 123%
Anti-hypoxic activity (%) ([4]; Compound (1) 100 mg/kg oral in combination with Compound B1 (Donepezil) 3 mg/kg): 111%
